The values below come from patent publication US20090263489A1, “ANALGESIC AND ANTI-INFLAMMATORY COMPOSITIONS AND METHODS FOR REDUCING, PREVENTING OR TREATING PAIN AND INFLAMMATION” (Warsaw Orthopedic, Inc., priority 2008, published 2009).

The nature of data set [1]: Solubility noted for preparing the formulations.
Data set [2] deals with chronic constriction injury (CCI) rats. The experiment in a line: Mechanical allodynia (von Frey monofilaments, 50% paw withdrawal threshold) in chronic constriction injury model. Type of data set: in vivo, Wistar rats. As to conditions: days 8 and 15, vs control (PBS). How it is done: (§1) The behavioral animal model of chronic constriction injury (“CCI”) was chosen to evaluate the efficacy of an analgesic and anti-inflammatory agent as a pain and inflammation treatment. This model may mimic pain associated with sciatica in humans.
(§2) Fifty-Six male Wistar rats (Charles River Laboratories, Wilmington, Mass.) weighing 300±26 g the day of surgery (Day 1) were used in this study. All experiments were conducted in accordance with the International Association for the Study of Pain guidelines and approved by the Institutional Animal Care and Use Committee at SRI International, Inc (Menlo Park, Calif.). CCI was induced according to the method of Bennett and Xie. Briefly, each animal was anesthetized by intraperitoneal (IP) injection of sodium pentobarbital at a dose of 60 mg/kg. The animal's common sciatic nerve was exposed and freed from adherent tissue at mid-thigh by separating the biceps femoris muscles by blunt dissection. Four loose ligatures were placed 1 mm apart, using chromic gut suture (4-0 absorbable suture; Jorgensen Laboratories, Inc., Loveland, Colo.).
(§3) Seven animals were randomly assigned to each treatment group.
Mechanical allodynia was measured using von Frey monofilaments (Stoelting, Wood Dale, Ill.) with varying stiffness (2.0-15.0 g) on Days −1, 8, and 15 as described previously (see FIG. 4). Animals were placed on a perforated metallic platform and allowed to habituate to their surroundings for a minimum of 15 minutes before testing. The 50% paw withdrawal threshold response was determined by a sequential increasing and/or decreasing of the stimulus strength (the “up-down method” of Dixon). Each filament was applied with enough pressure to cause a buckling effect. Absence of a paw lifting/withdrawal response after 5 seconds prompted the use of the filament of next higher weight. Paw withdrawal indicating a positive response prompted the use of a weaker filament. After the initial response (i.e., paw withdrawal), the testing continued for four additional measurements and was used to calculate the response threshold. Four consecutive positive responses received a score of 0.25 g, and five consecutive negative responses (i.e., no paw withdrawal) received a score of 15 g. The 50% paw withdrawal threshold was calculated using the formula: 10(Xf+kd)/10,000, where Xf is the final von Frey filament used (log units), k is a value that analyzes the response pattern (taken from the table published by Chaplan et al.), and d is the mean difference between stimuli (log units). The mean and standard error of the mean (SEM) were determined for each treatment group.

For data set [3] the test system is unchanged. Put plainly: Thermal paw withdrawal latency (Hargreaves test) in chronic constriction injury model. The data set is classed as in vivo, Wistar rats. Particulars: days 7 and 14, vs control (PBS). Here is the method:
as §1, §2, §3
Withdrawal latencies to a noxious thermal stimulus were measured according to the Hargreaves test using a plantar analgesia instrument (Stoelting, Wood Dale, Ill.) on Days −2, 7, and 14 (see FIG. 3). The radiant infrared heat source stimulus intensity was set to IR50 and the cut-off time was set at 15 seconds. Rats were placed on a glass platform and allowed to habituate to the testing chambers for a minimum of 15 minutes prior to each testing session. The thermal stimulus was applied to the plantar surface of the paw. Thermal thresholds were defined as the latency in seconds at the first pain behavior, which includes paw withdrawal, flinching, biting and/or licking of the stimulated paw. The readings for all animals were averaged and the mean and standard error of the mean (SEM) were determined for each treatment group.

Where [4] appears, read: 2 mg/kg/day IP daily, listed as sulindac.

As usually defined, the solubility is how much of the substance goes into solution per volume. Low values mean little dissolved substance, high ones much dissolved substance.

The structures appear in SMILES notation. Entries after “also recorded” stand apart in the source; their conditions may differ. Where a name gives a salt, the structure may show the parent alone. Some results are limits rather than exact numbers.

In turn, `COc1cccc([C@]2(O)CCCC[C@H]2CN(C)C)c1` (racemic) [Tramadol, (±)cis-2-[(dimethylamino)methyl]-1-(3-methoxyphenyl)cyclohexanol hydrochloride] gave a solubility in data set [1] (saline, saline or isotonic) of no less than 25 mg/mL.
Turning to `N=C(N)NCCSSCCNC(=N)N` [GED, guanidinoethyldisulfide], the “solubility in organic solvents” value in data set [1] (printed 'irganic solvents') was “insoluble”. This compound also had a solubility in data set [1] (water) of no more than 5 mg/mL. For the same compound, the “mechanical thresholds (von Frey): reducing pain and/or inflammation” value was “effective at reducing pain and/or inflammation for 15 days; also recorded: particularly effective at reducing pain and/or inflammation” in data set [2] (1 mg/kg/day IP daily) and “effective at reducing pain and/or inflammation for 15 days” in data set [2] (3 mg/kg/day IP daily). Moreover, the “thermal paw withdrawal latency: reducing pain and/or inflammation” value in data set [3] (1 mg/kg/day IP daily) is recorded as “effective at reducing pain and/or inflammation for 14 days”; in data set [3] (3 mg/kg/day IP daily), “effective at reducing pain and/or inflammation for 14 days; also recorded: particularly effective at reducing pain and/or inflammation”.
For `CC[C@H](C)C(=O)O[C@H]1C[C@@H](C)C=C2C=C[C@H](C)[C@H](CC[C@@H]3C[C@@H](O)CC(=O)O3)[C@H]21` [Lovastatin, lovastatin], in data set [1] (DMSO), the “Soluble in DMSO” value is “up to 40 mg/kg”. Moreover, the “mechanical thresholds (von Frey): reducing pain and/or inflammation” value in data set [2] (0.3 mg/kg/day IP daily) is on record as “effective at reducing pain and/or inflammation for 15 days”; in data set [2] (3 mg/kg/day IP daily) it was “effective at reducing pain and/or inflammation for 15 days”; in data set [2] (3 mg/kg/day IP daily, listed as lovastatin), “particularly effective at reducing pain and/or inflammation”. Moreover, the “thermal paw withdrawal latency: reducing pain and/or inflammation” value was “effective at reducing pain and/or inflammation for 14 days” in data set [3] (0.3 mg/kg/day IP daily) and “effective at reducing pain and/or inflammation for 14 days; also recorded: particularly effective at reducing pain and/or inflammation” in data set [3] (3 mg/kg/day IP daily).
For `CC1=C(CC(=O)O)c2cc(F)ccc2C1=Cc1ccc([S+](C)[O-])cc1` (centres unmarked) [Sulindac, 2-[6-fluoro-2-methyl-3-[(4-methylsulfinylphenyl)-methylidene]inden-1-yl]-acetic acid], the figures for the “mechanical thresholds (von Frey): reducing pain and/or inflammation” value in data set [2] (2 mg/kg/day IP daily) and in data set [2] (setting [4]) were “particularly effective at reducing pain and/or inflammation” and “effective at reducing pain and/or inflammation for 15 days”, respectively. The “thermal paw withdrawal latency: reducing pain and/or inflammation” value is reported as “particularly effective at reducing pain and/or inflammation” in data set [3] (2 mg/kg/day IP daily) and “effective at reducing pain and/or inflammation for 14 days” in data set [3] (setting [4]).
